Experimental data published in PMC11198769, “Enhancement of transcription efficiency by TAR-Tat system increases the functional expression of human olfactory receptors” (PLOS ONE, 2024).

Experiments:
OR1A1 = biological target: T1, OR1A1 (Homo sapiens, UniProt Q9P1Q5); assay: hOR assay (GloSensor cAMP luciferase), dose-response; type: cell-based
T1 construct: Lucy tag (N); FLAG (N); Rho tag (N); expressed in transfected cells; host or cells: Flp-In T-REx-293 cells stably expressing RTP1S, Gαolf and Ric8-b
T1 sequence (Q9P1Q5 1-309): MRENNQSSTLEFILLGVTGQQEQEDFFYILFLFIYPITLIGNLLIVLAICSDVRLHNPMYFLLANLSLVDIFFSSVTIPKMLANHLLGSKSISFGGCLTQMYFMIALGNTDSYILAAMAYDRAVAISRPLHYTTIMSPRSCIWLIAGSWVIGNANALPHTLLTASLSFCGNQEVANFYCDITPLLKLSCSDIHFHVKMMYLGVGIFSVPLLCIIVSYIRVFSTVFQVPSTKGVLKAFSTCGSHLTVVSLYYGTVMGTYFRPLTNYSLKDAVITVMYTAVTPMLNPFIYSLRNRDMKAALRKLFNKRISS

OR8B8 = biological target: T2, OR8B8 (Homo sapiens, UniProt Q15620); assay: as above; type: cell-based; settings: OR8B8, with or without the TAR-Tat system
T2 construct: Lucy tag (N); FLAG (N); Rho tag (N); expressed in transfected cells; host or cells: Flp-In T-REx-293 cells stably expressing RTP1S, Gαolf and Ric8-b
T2 sequence (Q15620 1-311): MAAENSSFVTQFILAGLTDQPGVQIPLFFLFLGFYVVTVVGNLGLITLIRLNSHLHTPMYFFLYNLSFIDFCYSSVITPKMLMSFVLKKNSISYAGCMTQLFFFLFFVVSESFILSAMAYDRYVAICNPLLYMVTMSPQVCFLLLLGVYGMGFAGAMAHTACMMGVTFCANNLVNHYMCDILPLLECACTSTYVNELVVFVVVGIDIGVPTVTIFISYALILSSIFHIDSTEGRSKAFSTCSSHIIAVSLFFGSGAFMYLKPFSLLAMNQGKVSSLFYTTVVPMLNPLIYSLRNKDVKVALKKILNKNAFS

OR2Z1 = biological target: T3, OR2Z1 (Homo sapiens, UniProt Q8NG97); assay: as above; type: cell-based; settings: OR2Z1, with or without the TAR-Tat system
T3 construct: Lucy tag (N); FLAG (N); Rho tag (N); expressed in transfected cells; host or cells: Flp-In T-REx-293 cells stably expressing RTP1S, Gαolf and Ric8-b
T3 sequence (Q8NG97 1-314): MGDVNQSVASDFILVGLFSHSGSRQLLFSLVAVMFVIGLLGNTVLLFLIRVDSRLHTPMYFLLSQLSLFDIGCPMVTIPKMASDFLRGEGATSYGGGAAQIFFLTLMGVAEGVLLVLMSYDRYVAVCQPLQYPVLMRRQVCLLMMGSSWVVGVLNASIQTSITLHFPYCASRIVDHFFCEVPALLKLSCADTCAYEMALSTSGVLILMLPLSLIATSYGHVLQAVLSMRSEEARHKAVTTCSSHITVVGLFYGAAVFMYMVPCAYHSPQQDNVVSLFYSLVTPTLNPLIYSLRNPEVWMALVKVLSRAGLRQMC

OR2W1 = biological target: T4, OR2W1 (Homo sapiens, UniProt Q9Y3N9); parameters: method as in PMID 19261596; settings: read-out: EC50 value of n-hexanal for OR2W1 reported in a previous study; cited from earlier work
T4 construct: Lucy tag (N); FLAG (N); Rho tag (N); expressed in transfected cells; host or cells: Flp-In T-REx-293 cells stably expressing RTP1S, Gαolf and Ric8-b
T4 sequence (Q9Y3N9 1-320): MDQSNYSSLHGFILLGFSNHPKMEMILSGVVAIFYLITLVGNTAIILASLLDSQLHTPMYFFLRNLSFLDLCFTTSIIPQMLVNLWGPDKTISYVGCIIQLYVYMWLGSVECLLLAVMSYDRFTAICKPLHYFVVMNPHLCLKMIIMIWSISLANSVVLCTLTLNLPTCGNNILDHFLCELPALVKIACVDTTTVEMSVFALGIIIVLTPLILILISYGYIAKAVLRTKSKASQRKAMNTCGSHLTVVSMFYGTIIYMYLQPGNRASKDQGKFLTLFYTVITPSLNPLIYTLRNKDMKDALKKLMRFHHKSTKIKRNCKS

EC50 (OR1A1; OR1A1/pHEK (with TAR-Tat system), read-out: EC50 of n-hexanal concentration-response relationship): 995 µM
concentration-dependent response to n-hexanal (OR8B8): no concentration-dependent response
concentration-dependent response to n-hexanal (OR2Z1): no concentration-dependent response
Structure (SMILES): CCCCCC=O [n-hexanal]
concentration-dependent response to n-hexanal (OR1A1; OR1A1, with and without the TAR-Tat system): concentration-dependent responses only with the TAR-Tat system
EC50 (OR2W1): 7.9 µM
